Results taken from PubChem BioAssay (NCI).
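Results reflect a 48-hour exposure of cells in 96-well plates to compound at five concentrations. The concentration for 50% growth inhibition is given as GI50. TGI marks complete inhibition of growth.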

Columns and labels:
Test in all cases: inhibition of tumour cell growth, NCI panel, 48 h
U251 CNS = system: U251 CNS
SW-620 colon = system: SW-620 colon
HCT-116 colon = system: HCT-116 colon
SNB-19 CNS = system: SNB-19 CNS
MALME-3M melanoma = system: MALME-3M melanoma
RXF 393 renal = system: RXF 393 renal
IGROV1 ovarian = system: IGROV1 ovarian
SK-OV-3 ovarian = system: SK-OV-3 ovarian
NCI/ADR-RES ovarian = system: NCI/ADR-RES ovarian
HCT-15 colon = system: HCT-15 colon
COLO 205 colon = system: COLO 205 colon
EKVX NSCLC = system: EKVX NSCLC
UACC-62 melanoma = system: UACC-62 melanoma
HCC-2998 colon = system: HCC-2998 colon
NCI-H522 lung = system: NCI-H522 lung
MOLT-4 leukemia = system: MOLT-4 leukemia
CCRF-CEM leukemia = system: CCRF-CEM leukemia
PC-3 prostate = system: PC-3 prostate
UO-31 renal = system: UO-31 renal
ACHN renal = system: ACHN renal
RPMI-8226 leukemia = system: RPMI-8226 leukemia
NCI-H460 lung = system: NCI-H460 lung
KM12 colon = system: KM12 colon
SK-MEL-28 melanoma = system: SK-MEL-28 melanoma
HL-60(TB) leukemia = system: HL-60(TB) leukemia
A498 renal = system: A498 renal
T-47D breast = system: T-47D breast
MDA-MB-231 breast = system: MDA-MB-231 breast
OVCAR-3 ovarian = system: OVCAR-3 ovarian
MCF7 breast = system: MCF7 breast
SF-268 CNS = system: SF-268 CNS
SK-MEL-5 melanoma = system: SK-MEL-5 melanoma
SN12C renal = system: SN12C renal
DU-145 prostate = system: DU-145 prostate
SNB-75 CNS = system: SNB-75 CNS
CAKI-1 renal = system: CAKI-1 renal
OVCAR-8 ovarian = system: OVCAR-8 ovarian
M14 melanoma = system: M14 melanoma
LOX IMVI melanoma = system: LOX IMVI melanoma
HS 578T breast = system: HS 578T breast
K-562 leukemia = system: K-562 leukemia
HOP-92 NSCLC = system: HOP-92 NSCLC
SF-539 CNS = system: SF-539 CNS
OVCAR-4 ovarian = system: OVCAR-4 ovarian
HT29 colon = system: HT29 colon
A549 NSCLC = system: A549 NSCLC
SF-295 CNS = system: SF-295 CNS
NCI-H226 lung = system: NCI-H226 lung
SK-MEL-2 melanoma = system: SK-MEL-2 melanoma
UACC-257 melanoma = system: UACC-257 melanoma
HOP-62 NSCLC = system: HOP-62 NSCLC
MDA-MB-435 = system: MDA-MB-435
OVCAR-5 ovarian = system: OVCAR-5 ovarian
786-0 renal = system: 786-0 renal
BT-549 breast = system: BT-549 breast
TK-10 renal = system: TK-10 renal

COc1ccc2c(c1)c(-c1cc(N)n3nc(-c4cn(C)c5ccc(OC)cc45)cc3n1)cn2C
GI50 (U251 CNS): 1820 nM | TGI (U251 CNS): 3490 nM | GI50 (SW-620 colon): 1020 nM | TGI (SW-620 colon): 2410 nM | GI50 (HCT-116 colon): 1500 nM | TGI (HCT-116 colon): 3100 nM | GI50 (SNB-19 CNS): 2500 nM | TGI (SNB-19 CNS): 6690 nM | GI50 (MALME-3M melanoma): 1870 nM | TGI (MALME-3M melanoma): 3650 nM | GI50 (RXF 393 renal): 1870 nM | TGI (RXF 393 renal): 3570 nM | GI50 (IGROV1 ovarian): 2000 nM | TGI (IGROV1 ovarian): 4140 nM | GI50 (SK-OV-3 ovarian): 2140 nM | TGI (SK-OV-3 ovarian): 4310 nM | GI50 (NCI/ADR-RES ovarian): 2070 nM | TGI (NCI/ADR-RES ovarian): 4520 nM | GI50 (HCT-15 colon): 1150 nM | TGI (HCT-15 colon): 2780 nM | GI50 (COLO 205 colon): 1700 nM | TGI (COLO 205 colon): 3190 nM | GI50 (EKVX NSCLC): 1840 nM | TGI (EKVX NSCLC): 3670 nM | GI50 (UACC-62 melanoma): 1960 nM | TGI (UACC-62 melanoma): 3870 nM | GI50 (HCC-2998 colon): 1870 nM | TGI (HCC-2998 colon): 3320 nM | GI50 (NCI-H522 lung): 1740 nM | TGI (NCI-H522 lung): 3410 nM | GI50 (MOLT-4 leukemia): 1950 nM | TGI (MOLT-4 leukemia): 4880 nM | GI50 (CCRF-CEM leukemia): 436 nM | TGI (CCRF-CEM leukemia): 7460 nM | GI50 (PC-3 prostate): 1840 nM | TGI (PC-3 prostate): 3930 nM | GI50 (UO-31 renal): 1660 nM | TGI (UO-31 renal): 3190 nM | GI50 (ACHN renal): 1790 nM | TGI (ACHN renal): 3250 nM | GI50 (RPMI-8226 leukemia): 1780 nM | TGI (RPMI-8226 leukemia): 6150 nM | GI50 (NCI-H460 lung): 1790 nM | TGI (NCI-H460 lung): 3520 nM | GI50 (KM12 colon): 1850 nM | TGI (KM12 colon): 3510 nM | GI50 (SK-MEL-28 melanoma): 1850 nM | TGI (SK-MEL-28 melanoma): 3460 nM | GI50 (HL-60(TB) leukemia): 1310 nM | TGI (HL-60(TB) leukemia): 3980 nM | GI50 (A498 renal): 1840 nM | TGI (A498 renal): 3680 nM | GI50 (T-47D breast): 1700 nM | TGI (T-47D breast): 3500 nM | GI50 (MDA-MB-231 breast): 1840 nM | TGI (MDA-MB-231 breast): 3490 nM | GI50 (OVCAR-3 ovarian): 1750 nM | TGI (OVCAR-3 ovarian): 3170 nM | GI50 (MCF7 breast): 1250 nM | TGI (MCF7 breast): 2740 nM | GI50 (SF-268 CNS): 2030 nM | TGI (SF-268 CNS): 4400 nM | GI50 (SK-MEL-5 melanoma): 1790 nM | TGI (SK-MEL-5 melanoma): 3250 nM | GI50 (SN12C renal): 2020 nM | TGI (SN12C renal): 3980 nM | GI50 (DU-145 prostate): 1800 nM | TGI (DU-145 prostate): 3190 nM | GI50 (SNB-75 CNS): 2130 nM | TGI (SNB-75 CNS): 6270 nM | GI50 (CAKI-1 renal): 1790 nM | TGI (CAKI-1 renal): 3460 nM | GI50 (OVCAR-8 ovarian): 1750 nM | TGI (OVCAR-8 ovarian): 3290 nM | GI50 (M14 melanoma): 1740 nM | TGI (M14 melanoma): 3420 nM | GI50 (LOX IMVI melanoma): 2040 nM | TGI (LOX IMVI melanoma): 3640 nM | GI50 (HS 578T breast): 2570 nM | TGI (HS 578T breast): 6670 nM | GI50 (K-562 leukemia): 392 nM | TGI (K-562 leukemia): > 100000 nM | GI50 (HOP-92 NSCLC): 1880 nM | TGI (HOP-92 NSCLC): 4250 nM | GI50 (SF-539 CNS): 1780 nM | TGI (SF-539 CNS): 3270 nM | GI50 (OVCAR-4 ovarian): 2040 nM | TGI (OVCAR-4 ovarian): 4270 nM | GI50 (HT29 colon): 1730 nM | TGI (HT29 colon): 3140 nM | GI50 (A549 NSCLC): 1700 nM | TGI (A549 NSCLC): 3310 nM | GI50 (SF-295 CNS): 1880 nM | TGI (SF-295 CNS): 3440 nM | GI50 (NCI-H226 lung): 2060 nM | TGI (NCI-H226 lung): 4250 nM | GI50 (SK-MEL-2 melanoma): 1830 nM | TGI (SK-MEL-2 melanoma): 3460 nM | GI50 (UACC-257 melanoma): 1780 nM | TGI (UACC-257 melanoma): 3630 nM | GI50 (HOP-62 NSCLC): 1810 nM | TGI (HOP-62 NSCLC): 3670 nM | GI50 (MDA-MB-435): 1910 nM | TGI (MDA-MB-435): 3740 nM | GI50 (OVCAR-5 ovarian): 1840 nM | TGI (OVCAR-5 ovarian): 3580 nM | GI50 (786-0 renal): 1640 nM | TGI (786-0 renal): 3410 nM | GI50 (BT-549 breast): 3230 nM | TGI (BT-549 breast): 12000 nM | GI50 (TK-10 renal): 1810 nM | TGI (TK-10 renal): 3600 nM
